Series [1] deals with DU-145 cells. The series is described as follows: Apoptosis necrosis analysis (Annexin V-FITC / PI flow cytometry). The conditions noted are these: 1, 2.5, 5 µM, 24 h. The class given is cell-based, human. On the procedure:
To assess cellular apoptosis and necrosis, a fluorochrome-labelled Annexin V (FITC) and Propidium Iodide (PI) staining kit (SONY Biotechnology, San Jose, CA, USA) was used according to the manufacturer’s protocol. DU-145 cells were initially seeded at a density of 1 × 10^6 cells per well in 6-well plates. After an incubation period, the cells were treated with varying concentrations of AQQ1 (1, 2.5, and 5 µM) along with negative control for 24 h. Then, the cells were detached using trypsin and then suspended in 500 µL of 1× Binding Buffer. Subsequently, 3 µL of Propidium Iodide (PI) and 5 µL of Annexin V-FITC were added to the cell suspension, followed by a 15 min incubation at room temperature in the dark. Post-incubation, cell analysis was performed via flow cytometry using the BD FACS Calibur Flow Cytometry System. The percentages of apoptotic and necrotic cells were determined using BD CellQuest Pro Software version 5.1 (both from Becton Dickinson, Sunnyvale, CA, USA).

Series [2] can be described thus: In vivo bioavailability / pharmacokinetic study IV and PO. Set-up: species or system male Sprague-Dawley rats. The conditions noted are these: rat; for AUC(0-inf) / AUC(0-t) / C0 / MRT last / Vd / clearance / half-life / Cmax / Tmax: male, Sprague-Dawley, whole blood; for Tmax: median. On the procedure: Using the validated Phoenix® WinNonlin® 8.3 NCA tool Version 8 or higher (Certara L.P.), USA, pharmacokinetic parameters were computed. As appropriate, Cmax, Tmax, and exposures (AUCinfinity and AUClast) were calculated. Furthermore, pharmacokinetic characteristics such as distribution volume (Vd), […] (CL), elimination half-life (T1/2), and parenteral route like (C0) were evaluated. Using dose-normalized non-intravenous exposure versus dose-normalized intravenous exposure, oral bioavailability (F%) was computed (Table 5).
S2.2. In vivo Bioavailability Study of AQQ1 and AQQ2 in Male Sprague-Dawley Rats Sprague-Dawley rats (HyLasco Biotechnology (India) Pvt. Ltd., a subsidiary of Charles River from the US) of 8-12 weeks of age (at the time of treatment), weighing between 220 and 320 g, […]
Housing: Animals were housed in polysulfonate cages in a typical research laboratory environment at 25 ± 3°C and 50%-70% relative humidity with approximately 12 h light and dark cycles maintained with an enrichment device. During the study, the animals had access to a rat maintenance diet (Altromin Spezialfutter GmbH, Germany) and purified water (UV-treated, […]
Animal experiments were conducted in accordance with the guidelines of the Committee for the Purpose of Control and Supervision of Experiments on Animals (CPCSEA), Ministry of […], Government of India, and approved by the Institutional Animal Ethics Co m m i tt e e . […] AQQ1 a n d AQQ2 in NMP (10%) + PBS (pH 7.4) qs was administered intravenously at a dose of 1 mg/kg bw (10 mL/kg). AQQ1 and AQQ2 in NMP (10%) + Cremophor EL (5%) + PEG400 (30%) + PG (20%) + PBS (pH 7.4) qs was administered PO at a dose of 5 mg/kg bw (10 mL/kg). The animal weight on the day of dosing was used to calculate the required volume of the formulation and administered to the rats.
After dosing, blood samples (~0.250 mL) were collected from the jugular vein at the following time points: 0.083 (IV only), 0.25, 0.5, 1, 2, 4, 6, 8, and 24 h using a serial sampling design (equal volumes of heparinized saline were replaced after each sample collection). The samples were collected in pre-labeled microcentrifuge tubes containing K2EDTA (20 μL of 200 mM solution […]
per mL of blood) as an anticoagulant. The blood samples were stored at -60°C until bioanalysis using the fit-for-purpose LC-MS/MS method. Pharmacokinetic parameters were calculated using the non-compartmental analysis (NCA) tool of the validated Phoenix® WinNonlin® 8.3.
Group Treatment/Route Dose (mg/kg) Dose volume (mL/kg) Stregth

For series [3], the system named is DU-145 cells. Kind of series: Colony formation assay. The class given is cell-based, human. The conditions noted are these: 24 h treatment, 10 days growth. On the procedure: DU-145 cells were seeded in 6-well plates at a density of 1000 cells/well and allowed to incubate overnight. Then, the cells were treated with varying concentrations of AQQ1 (1, 2.5, and 5 µM) along with negative control and 2.5 µM DOXO for 24 h. After a medium refreshment, the cells were allowed to grow for 10 days. After incubation, the colonies are fixed with cold methanol for 5 min and then stained with a 0.5% crystal violet solution (prepared in 10% methanol) for 20 min. The plates were allowed to air-dry and the colonies were counted manually.

The subject of series [4] is DU-145 cells. Kind of series: Oxidative stress: intracellular ROS (DCFDA, flow cytometry). The class given is cell-based, human. The settings on record: 1, 2.5, 5 µM, 24 h. On the procedure: DU-145 cells were initially seeded at a density of 1 × 10^6 cells per well in 6-well plates. Cells were subjected to AQQ1 treatments as described earlier. After an incubation period, the cells were treated with varying concentrations of AQQ1 (1, 2.5, and 5 µM) for 24 h. ROS analysis was carried out using the DCFDA oxidation method according to Eruslanov and Kusmartsev with some modifications. For positive control, the cells were exposed to 100 µM H2O2 for 30 min. Then, the medium was discarded, 20 µM DCDFA (Sigma-Aldrich, USA) in culture medium was added to the wells, and plates were incubated for 15 min in the dark. The cells were analysed with NovoCyte (Agilent, Palo Alto, CA, USA) flow cytometry using NovoExpress version 1.6.2 software (Agilent, USA).

Another series concerns RXF 393. Kind of series: NCI-60 one-dose screen (renal cancer). The class given is cell-based, human. The conditions noted are these: 10 µM single dose, 48 h.
The subject of a further series is CAKI-1. Kind of series: NCI-60 one-dose screen (renal cancer). The class given is cell-based, human. The settings on record: 10 µM single dose, 48 h.

Regarding `COc1ccccc1NC1=C(Cl)C(=O)c2nc(C)ccc2C1=O` [AQQ1], in the series with DU-145 cells [1], the “live and necrotic cell counts” value was “reduced live cell counts and increased necrotic cells”. Further, in series [2] (IV 1 mg/kg), the AUC(0-inf) worked out at 115 ± 45.7 ng·h/mL, the AUC(0-t) came out at 77.5 ± 9.81 ng·h/mL, the C0 is 90.8 ± 71.3 ng/mL and the MRT last came out at 3.77 ± 0.279 h. In series [2] (IV 1 mg/kg), the Vd was 90.3 ± 40 L/kg, the clearance amounted to 161 ± 62.9 mL/min/kg, the half-life is 9.35 ± 8.75 h and the “plasma clearance relative to normal hepatic blood flow of rats” value is given as “approximately 2.93 fold”. Besides, in series [2] (PO 5 mg/kg), the AUC(0-inf) turned out to be 4000 ± 179 ng·h/mL, the AUC(0-t) stood at 3810 ± 111 ng·h/mL, the Cmax was 435 ± 18.1 ng/mL and the MRT last was found to be 7.47 ± 0.367 h. Also, in series [2] (PO 5 mg/kg), the half-life was 5.22 ± 0.843 h and the Tmax came to 0.5 h. In addition, in the series with DU-145 cells [3], the colony-forming ability entry is “significantly reduced the colony-forming ability”. For the same compound, the “intracellular ROS levels” value in the series with DU-145 cells [4] is reported as “significantly increased ROS levels dose-dependently”.

As to `CCOc1ccccc1NC1=C(Cl)C(=O)c2nc(C)ccc2C1=O` [AQQ2], in series [2] (IV 1 mg/kg), the AUC(0-inf) turned out to be 110 ± 18.1 ng·h/mL, the AUC(0-t) is 77 ± 21 ng·h/mL, the C0 was determined as 23.2 ± 12.8 ng/mL and the MRT last was 6.84 ± 1.84 h. For the same compound, in series [2] (IV 1 mg/kg), the Vd stood at 147 ± 9.71 L/kg, the clearance was 154 ± 26.9 mL/min/kg, the half-life is 12.8 ± 2.95 h and the “plasma clearance relative to normal hepatic blood flow of rats” value was “approximately 2.8 fold”. Moreover, the “volume of distribution relative to 0.7 L/kg total body fluids” value in series [2] (IV 1 mg/kg) is given as “approximately 210 fold”. Further, in series [2] (PO 5 mg/kg), the AUC(0-inf) was found to be 2370 ± 375 ng·h/mL, the AUC(0-t) stood at 2300 ± 416 ng·h/mL, the highest level (Cmax) was 282 ± 79.4 ng/mL and the MRT last amounted to 6.61 ± 0.787 h. Besides, in series [2] (PO 5 mg/kg), the half-life was 4.72 ± 1.16 h and the Tmax worked out at 1 h.

For `COc1cc(NC2=C(Cl)C(=O)c3nc(C)ccc3C2=O)cc(OC)c1` [AQQ5], the results for the “GP (growth percentage)” value in the series with RXF 393 and in the series with CAKI-1 were −97.24% and −96.53%, respectively.

The values are drawn from PMC11200585, “Prospects for Prostate Cancer Chemotherapy: Cytotoxic Evaluation and Mechanistic Insights of Quinolinequinones with ADME/PK Profile” (Biomedicines, 2024).
